Reference: ChEMBL document CHEMBL5252623, “Discovery of 3-phenyl-1,2,4-oxadiazole derivatives as a new class of SARS-CoV-2 main protease inhibitors” (Bioorg Med Chem Lett, 2023)

Molecular target: Replicase polyprotein 1ab (Severe acute respiratory syndrome coronavirus 2, UniProt P0DTD1)
Assay: Inhibition of SARS-CoV-2 main protease expressed in Escherichia coli BL21 (DE3) using MDA-AVLQSGFR-Lys(Dnp)-Lys-NH2 as substrate incubated for 10 mins by FRET analysis

## O=C(CCc1ccccc1)NCc1nc(-c2ccc(C(F)(F)F)cc2)no1
  IC50: 90.5 µM

## O=C(NCc1nc(-c2ccc(C(F)(F)F)cc2)no1)c1ccccc1
  IC50: 62 µM

## CC1=C(c2ccccc2)C1C(=O)NC(Cc1cccc(F)c1)c1nc(-c2ccc(C(F)(F)F)cc2)no1 (stereo not given)
  IC50: 14.2 µM

## CC1=C(c2ccccc2)C1C(=O)NCc1nc(-c2cccc(C(F)(F)F)c2)no1 (stereo not given)
  IC50: 14.3 µM

## CC1=C(c2ccccc2)C1C(=O)NC(Cc1ccccc1F)c1nc(-c2ccc(C(F)(F)F)cc2)no1 (stereo not given)
  IC50: 7.48 µM

## O=C(/C=C/c1ccccc1)NCc1nc(-c2ccc(C(F)(F)F)cc2)no1
  IC50: 46.3 µM

## CC1=C(c2ccccc2)C1C(=O)NC(CC1CCCCC1)c1nc(-c2ccc(C(F)(F)F)cc2)no1 (stereo not given)
  IC50: 19.4 µM

## O=C(/C=C/c1ccco1)NCc1nc(-c2ccc(C(F)(F)F)cc2)no1
  IC50: 60.5 µM

## CC1=C(c2ccccc2)C1C(=O)NCc1nc(-c2ccccc2)no1 (stereo not given)
  IC50: 79.6 µM

## CC1=C(c2ccccc2)C1C(=O)NC(Cc1ccc(F)cc1)c1nc(-c2ccc(C(F)(F)F)cc2)no1 (stereo not given)
  IC50: 16.5 µM

## CC1=C(c2ccccc2)C1C(=O)NCc1nc(-c2ccc(C(F)(F)F)cc2)no1 (stereo not given)
  IC50: 6.71 µM

## O=C(C#Cc1ccccc1)NCc1nc(-c2ccc(C(F)(F)F)cc2)no1
  IC50: 46.9 µM

## C/C=C/C(=O)NCc1nc(-c2ccc(C(F)(F)F)cc2)no1
  IC50: 250 µM

## CC1=C(c2ccccc2)C1C(=O)NCc1nc(-c2ccccc2C(F)(F)F)no1 (stereo not given)
  IC50: 66.9 µM

## O=C(/C=C/c1cccs1)NCc1nc(-c2ccc(C(F)(F)F)cc2)no1
  IC50: 54.6 µM

## CC1=C(c2ccccc2)C1C(=O)NC(Cc1ccc2ccccc2c1)c1nc(-c2ccc(C(F)(F)F)cc2)no1 (stereo not given)
  IC50: 6.47 µM

## O=C(/C=C/c1ccccn1)NCc1nc(-c2ccc(C(F)(F)F)cc2)no1
  IC50: 102 µM

## CC1=C(c2ccccc2)C1C(=O)NC(CC1CC1)c1nc(-c2ccc(C(F)(F)F)cc2)no1 (stereo not given)
  IC50: 76.8 µM

## CC1=C(c2ccccc2)C1C(=O)NC(Cc1ccccc1)c1nc(-c2ccc(C(F)(F)F)cc2)no1 (stereo not given)
  IC50: 5.27 µM

## CC1=C(c2ccccc2)C1C(=O)NC(Cc1cc2ccccc2[nH]1)c1nc(-c2ccc(C(F)(F)F)cc2)no1 (stereo not given)
  IC50: 14.7 µM
